The text below walks through data of patent US20230096028A1, “BICYCLIC HETEROCYCLYL COMPOUNDS AND USES THEREOF” (Revolution Medicines, Inc., priority 2019, published 2023).

For the experiment, the system named is NCI-H358 xenograft. Nature of the experiment: In vivo tumor cell growth, NSCLC NCI-H358 xenograft model. Details: species or system female balb/c athymic nude mice. As to the method:
Objective: To evaluate the efficacy of the SOS1 inhibitor Compound A alone and in combination with a KRAS G12C inhibitor MRTX1257 following oral administration in the human non-small cell lung cancer (NSCLC) NCI-H358 xenograft model in nude mice.
Methods: The effect of a SOS1 inhibitor of the present invention (Compound A) on tumor cell growth in vivo was evaluated in the NSCLC NCI-H358 xenograft model using female balb/c athymic nude mice (6-8 weeks old). Mice were implanted with H358 tumor cells in 50% matrigel (5^e6 cells/mouse) subcutaneously in the flank. Once tumors reached an average size of ˜200 mm^3, mice were randomized to treatment groups and administration of test article or vehicle (2% HPMC, 0.1% tween in 50 mM sodium citrate buffer pH 4). Body weight and tumor volume (using digital calipers) were measured twice a week until study endpoints. Compounds were administered by oral gavage daily.

As for `C=CC(=O)N1CCN(c2nc(OC[C@@H]3CCCN3C)nc3c2CCN(c2cccc4cccc(C)c24)C3)C[C@@H]1CC#N` [MRTX1257], under “10 mg/kg, repeated daily dosing, single agent”, the “tumor growth inhibition, TGI” value is listed as 76%. For the same compound, the tumor response entry (50 mg/kg, H358 model) is reported as “achieved regressions”.
